# Results as given in patent US8722070B2, “Active compound combinations having insecticidal and acaricidal properties” (Bayer CropScience AG, priority 2000, dated 2014).
# Experiments:
# [1] = tested on: cotton aphid (Aphis gossypii); assay: Aphis gossypii test (cotton leaves dipped into the preparation of active compound); type: in vivo; conditions: individual active compound, 1.6 ppm, cotton leaves (Gossypium hirsutum)
# Excerpt: (§1) The expected action for a given combination of two active compounds can be calculated as follows, using the formula of S. R. Colby, Weeds 15 (1967), 20-22):
# (§2) • X is the kill rate, expressed as a percentage of the untreated control, when employing active compound A at an application rate of m g/ha or in a concentration of m ppm, • Y is the kilt rate, expressed as a percentage of the untreated control, when employing active compound B at an application rate of n g/ha or in a concentration of n ppm and • E is the kill rate, expressed as a percentage of the untreated control, when employing active compounds A and B at application rates of m and n g/ha or in a concentration of m and n ppm, then
# (§3) If the actual insecticidal kill rate exceeds the calculated value, the action of the combination is superadditive, i.e. a synergistic effect is present. In this case, the actually observed kill rate must exceed the value calculated using the above formula for the expected kill rate (E).
# (§4) After the desired period of time, the kill rate in % is determined. 100% means that all the animals have been killed; 0% means that none of the animals has been killed.
# (§5) Solvent: 3 parts by weight of dimethylformamide
# (§6) Emulsifier: 1 part by weight of alkylaryl polyglycol ether […]
# After the desired period of time, the kill in % is determined. […] The kill rates that are determined are calculated using Colby formula.
# [2] = tested on: peach aphid (Myzus persicae); assay: Myzus test (cabbage leaves dipped into the preparation of active compound); type: in vivo; conditions: individual active compound, 1.6 ppm, cabbage leaves (Brassica oleracea)
# Excerpt: as §1, §2, §3, §4, §5, §6
# After the desired period of time, the kill in % is determined. […] The kill rates determined are calculated using Colby's formula.
compound,measurement,setting,value
"CC1(C)C(C=C(Cl)Cl)C1C(=O)OC(C#N)c1ccc(F)c(Oc2ccccc2)c1 (centres unmarked) [cyfluthrin, Cyfluthrin]",Kill rates in % after 6d,[1],75%
same,Kill rates in % after 1d,[2],25%
